In ChEMBL document CHEMBL4190161 (Medchemcomm, 2016):
The source made the active and inactive calls. The rule behind the calls is not given here. Starred links: 1 amine or outer side, 2 acyl side, 3 side chain; linkers in the order of their positions; H or OH if unused. Residues, ends and D or L forms follow the SMILES beside them. γGlu = O=C(O)[C@H](CCC(=O)[*:2])N[*:1]

Columns and labels:
[1] = Antioxidant activity of the compound in phosphate buffer at pH 7.4 assessed as trolox equivalent of AAPH-induced peroxyl radical scavenging activity measured at 2 mins interval for 80 minutes by ORAC-FL assay; assay type: functional
[2] = Antioxidant activity assessed as ABTS radical scavenging activity measured within 12 mins by spectrophotometric method; assay type: functional
[3] = Metal chelating activity assessed as compound-Fe2+ complex formation
[4] = Antioxidant activity assessed as DPPH radical scavenging activity incubated for 30 mins under dark condition by spectrophotometric method; assay type: functional
[5] = Antioxidant activity of the compound in phosphate buffer at pH 7.4 assessed as trolox equivalent of AAPH-induced peroxyl radical scavenging activity at 6 uM pretreated for 2 mins followed by AAPH addition measured at 2 mins interval for 108 minutes by ORAC-FL assay; assay type: functional
[6] = Antioxidant activity assessed as DPPH radical scavenging activity measured after 20 mins by spectrophotometric method; assay type: functional
[7] = Antioxidant activity of the compound in phosphate buffer at pH 6.6 assessed as trolox equivalent of potassium ferric cyanide ion reducing activity at 0.4 mM after 20 mins by spectrophotometric method; assay type: functional
[8] = Antioxidant activity assessed as trolox equivalent of hydroxyl radical scavenging activity up to 25 mg/ml measured after 60 mins by fenton reaction method; assay type: functional
[9] = Antioxidant activity of the compound in phosphate buffered saline at pH 7.4 assessed as trolox equivalent of ABTS radical scavenging activity after 6 mins by spectrophotometric method; assay type: functional
[10] = Antioxidant activity assessed as DPPH radical scavenging activity measured after 30 mins by spectrophotometric method; assay type: functional

SMILES | Activity (umolequiv/umol) [1] | Activity [3] | IC50 [4] [mM] | Activity (umolequiv/umol) [5] | Activity [8] | other results
N[C@@H](Cc1c[nH]cn1)C(=O)O | 0.073 | – | – | – | – | –
N[C@@H](CCC(=O)O)C(=O)N[C@@H](CS)C(=O)N[C@@H](Cc1cnc[nH]1)C(=O)O (H-Glu-Cys-His-OH) | – | inactive | 0.11 | 0.1 | Active | Activity [2]: Active; Activity [6]: inactive; Activity (umolequiv/umol) [7]: 61.2
N[C@@H](CCC(=O)N[C@@H](CS)C(=O)NCC(=O)O)C(=O)O [GLUTATHIONE] | – | inactive | 0.16 | 0.65 | – | Activity [2]: Active; Activity (umolequiv/umol) [7]: 50.7
N[C@@H](Cc1ccc(O)cc1)C(=O)N[C@@H](CCC(=O)O)C(=O)NCC(=O)O (H-Tyr-Glu-Gly-OH) | – | inactive | 78.8 | 1.2 | – | Activity [2]: Active; Activity (mmolequiv/mmol) [8]: 0.47
CC(C)C[C@H](N)C(=O)N[C@@H](Cc1cnc[nH]1)C(=O)NCC(=O)O (H-Leu-His-Gly-OH) | – | inactive | 102 | -0.48 | Active | –
CC(C)C[C@H](NC(=O)[C@H](Cc1cnc[nH]1)NC(=O)[C@@H](N)Cc1ccc(O)cc1)C(=O)O | – | inactive | 99.9 | 0.36 | Active | –
CC(C)C[C@H](NC(=O)[C@@H](N)CCCCN)C(=O)N[C@@H](CCC(=O)O)C(=O)O (H-Lys-Leu-Glu-OH) | – | inactive | 348 | -0.04 | inactive | –
N[C@@H](CCC(=O)N[C@@H](CS)C(=O)N[C@@H](Cc1cnc[nH]1)C(=O)O)C(=O)O (γGlu-Cys-His-OH) | – | – | – | – | – | Activity [9]: Active
CC(C)C[C@H](NC(=O)[C@H](CCC(=O)O)NC(=O)CN)C(=O)O (H-Gly-Glu-Leu-OH) | – | inactive | 521 | -0.1 | inactive | –
CC(C)[C@H](NC(=O)[C@@H](N)CCCCN)C(=O)N[C@@H](Cc1cnc[nH]1)C(=O)O (H-Lys-Val-His-OH) | – | inactive | 285 | 0.03 | Active | –
CSCC[C@H](N)C(=O)O | 1.13 | – | – | – | – | –
N[C@@H](CS)C(=O)O | 0.149 | – | – | – | – | –
O=C(O)CNC(=O)[C@H](CS)NC(=O)[C@@H]1CCCN1 (H-Pro-Cys-Gly-OH) | – | inactive | 0.3 | 0.2 | Active | Activity [10]: inactive; Activity [9]: Active; Activity (umolequiv/umol) [7]: 25.2
N[C@@H](Cc1ccccc1)C(=O)O | 0.0025 | – | – | – | – | –
N[C@@H](Cc1ccc(O)cc1)C(=O)O | 1.57 | – | – | – | – | –
CC(C)C[C@H](NC(=O)[C@H](CCCCN)NC(=O)[C@@H](N)Cc1ccccc1)C(=O)O (H-Phe-Lys-Leu-OH) | – | inactive | 4.2 | -0.06 | Active | Activity (umolequiv/umol) [7]: 20.4
